# According to patent US9040067B2, “Disinfecting and antimicrobial compositions” (priority 2005, dated 2015):
# Tests used:
# E. coli 0157;H7 = assay: MIC/MLC in brain heart infusion broth; type: cell-based; further: key: + = growth (inactive); − = no growth (active)
# Procedure: (§1) The tests were carried out in 10 ml of brain heart infusion broth. The esters were serially diluted in brain heart infusion broth of samples of, 0.1, 0.2, 0.3, 0.4 and 0.5/10 ml and challenged with 0.1 ml of 1/100 dilution of 24 hr old brain heart infusion bacterial culture. The lowest concentration determined the minimum inhibitory concentration (MIC). The samples were observed after 48 hrs at 37° C. A loopful from tubes without growth were plated on BHI agar plates and observed for growth for 24 to 48 hrs at 37° C. The samples with the lowest concentration of the ester without bacterial growth on the plates represented the minimum lethal concentration (MLC).
# (§2) A series of samples of (a) methyl lactate, (b) ethyl lactate and (c) butyl lactate, alone, and in admixture with varying amounts of decyl lactate and sodium dodecyl sulfates were used to test minimum inhibitory activity (MIC) by the method described in Example II, against the cultures of E. coli 0157 H7, Listeria monocytogenes, Staphylococcus aureus, Salmonella typhi, and Pseudomonas aeruginosa.
# Listeria monocytogenes = assay: MIC/MLC in brain heart infusion broth; type: cell-based
# Procedure: as §1, §2
# Pseudomonas aeruginosa = assay: MIC/MLC in brain heart infusion broth; type: cell-based; conditions: for MIC, Concentration of Lactic Esters 0.5%: 0.5% ester; for MIC, Concentration of Lactic Esters 1%: 1% ester; for MIC, Concentration of Lactic Esters 2%: 2% ester; for MIC, Concentration of Lactic Esters 3%: 3% ester; for MIC, Concentration of Lactic Esters 4%: 4% ester; for MIC, Concentration of Lactic Esters 5%: 5% ester; on MIC, Concentration of Lactic Esters 0.5%: key: + = growth (inactive); − = no growth (active); on MIC, Concentration of Lactic Esters 1%: key: + = growth (inactive); − = no growth (active); on MIC, Concentration of Lactic Esters 2%: key: + = growth (inactive); − = no growth (active); on MIC, Concentration of Lactic Esters 3%: key: + = growth (inactive); − = no growth (active); on MIC, Concentration of Lactic Esters 4%: key: + = growth (inactive); − = no growth (active); on MIC, Concentration of Lactic Esters 5%: key: + = growth (inactive); − = no growth (active)
# Procedure: as §1, §2
# Staphylococcus aureus = assay: MIC/MLC in brain heart infusion broth; type: cell-based
# Procedure: The tests were carried out in 10 ml of brain heart infusion broth. […] The lowest concentration determined the minimum inhibitory concentration (MIC). The samples were observed after 48 hrs at 37° C. A loopful from tubes without growth were plated on BHI agar plates and observed for growth for 24 to 48 hrs at 37° C. The samples with the lowest concentration of the ester without bacterial growth on the plates represented the minimum lethal concentration (MLC).
# as §2
# Salmonella typhimurium = assay: MIC/MLC in brain heart infusion broth; type: cell-based
# Procedure: as §1
# Salmonella typhi = assay: MIC in brain heart infusion broth; type: cell-based; conditions: Table 4; further: key: + = growth (inactive); − = no growth (active)
# Procedure: as §1, §2
# Saccharomyces cerevisiae = assay: MIC and MLC against yeast in Sab. broth; type: cell-based; conditions: for Lethal (MLC) Concentration 1% / Inhibitory (MIC) Concentration 1%: 1% ester; for Lethal (MLC) Concentration 1.5% / Inhibitory (MIC) Concentration 1.5%: 1.5% ester; for Lethal (MLC) Concentration 2% / Inhibitory (MIC) Concentration 2%: 2% ester; for Lethal (MLC) Concentration 3% / Inhibitory (MIC) Concentration 3%: 3% ester; for Lethal (MLC) Concentration 4% / Inhibitory (MIC) Concentration 4%: 4% ester; on Lethal (MLC) Concentration 1%: key: + = growth (inactive); − = no growth (active); on Lethal (MLC) Concentration 1.5%: key: + = growth (inactive); − = no growth (active); on Lethal (MLC) Concentration 2%: key: + = growth (inactive); − = no growth (active); on Lethal (MLC) Concentration 3%: key: + = growth (inactive); − = no growth (active); on Lethal (MLC) Concentration 4%: key: + = growth (inactive); − = no growth (active)
# Procedure: A 0.1 ml of 1/100 dilution of 48 hr old culture of S. cerevisiae was used as inoculum. The test was performed using Sab. broth. The tubes were incubated at room temperature 25° C. The test was read after 48 hrs.
# [1] = Solubilization of dehydroacetic acid by ethyl lactate; type: physicochemical; conditions: 5.0 parts of dehydroacetic acid in 100 ml of ethyl lactate, room temperature
# [2] = 1%, second MLC line of organism
# [3] = 2%, second MLC line of organism
# [4] = 3%, second MLC line of organism
# [5] = 4%, second MLC line of organism
# [6] = 5%, second MLC line of organism
compound,measurement,setting,value
"CCOC(=O)C(C)O (centres unmarked) [Ethyl lactate, ethyl lactate]","MLC, Concentration of Ethyl lactate 0.5%",E. coli 0157;H7; first MLC line of organism,+
same,"MLC, Concentration of Ethyl lactate 0.5%",E. coli 0157;H7; second MLC line of organism,+
same,"MIC, growth at 1%","E. coli 0157;H7; 1%, Table 4",+
same,"MLC, Concentration of Ethyl lactate 1%","E. coli 0157;H7; 1%, first MLC line of organism",+
same,"MLC, Concentration of Ethyl lactate 1%",E. coli 0157;H7; [2],+
same,"MIC, growth at 2%","E. coli 0157;H7; 2%, Table 4",+
same,"MLC, Concentration of Ethyl lactate 2%","E. coli 0157;H7; 2%, first MLC line of organism",−
same,"MLC, Concentration of Ethyl lactate 2%",E. coli 0157;H7; [3],+
same,"MIC, growth at 3%","E. coli 0157;H7; 3%, Table 4",+
same,"MLC, Concentration of Ethyl lactate 3%","E. coli 0157;H7; 3%, first MLC line of organism",−
same,"MLC, Concentration of Ethyl lactate 3%",E. coli 0157;H7; [4],−
same,"MIC, growth at 4%","E. coli 0157;H7; 4%, Table 4",−
same,"MLC, Concentration of Ethyl lactate 4%","E. coli 0157;H7; 4%, first MLC line of organism",−
same,"MLC, Concentration of Ethyl lactate 4%",E. coli 0157;H7; [5],−
same,"MIC, growth at 5%","E. coli 0157;H7; 5%, Table 4",−
same,"MLC, Concentration of Ethyl lactate 5%","E. coli 0157;H7; 5%, first MLC line of organism",−
same,"MLC, Concentration of Ethyl lactate 5%",E. coli 0157;H7; [6],−
same,"MLC, Concentration of Ethyl lactate 0.5%",Listeria monocytogenes; first MLC line of organism,+
same,"MLC, Concentration of Ethyl lactate 0.5%",Listeria monocytogenes; second MLC line of organism,+
same,"MIC, growth at 1%","Listeria monocytogenes; 1%, Table 4",+
same,"MLC, Concentration of Ethyl lactate 1%","Listeria monocytogenes; 1%, first MLC line of organism",+
same,"MLC, Concentration of Ethyl lactate 1%",Listeria monocytogenes; [2],+
same,"MIC, growth at 2%","Listeria monocytogenes; 2%, Table 4",+
same,"MLC, Concentration of Ethyl lactate 2%","Listeria monocytogenes; 2%, first MLC line of organism",+
same,"MLC, Concentration of Ethyl lactate 2%",Listeria monocytogenes; [3],+
same,"MIC, growth at 3%","Listeria monocytogenes; 3%, Table 4",+
same,"MLC, Concentration of Ethyl lactate 3%","Listeria monocytogenes; 3%, first MLC line of organism",+
same,"MLC, Concentration of Ethyl lactate 3%",Listeria monocytogenes; [4],+
same,"MIC, growth at 4%","Listeria monocytogenes; 4%, Table 4",+
same,"MLC, Concentration of Ethyl lactate 4%","Listeria monocytogenes; 4%, first MLC line of organism",+
same,"MLC, Concentration of Ethyl lactate 4%",Listeria monocytogenes; [5],+
same,"MIC, growth at 5%","Listeria monocytogenes; 5%, Table 4",+
same,"MLC, Concentration of Ethyl lactate 5%","Listeria monocytogenes; 5%, first MLC line of organism",+
same,"MLC, Concentration of Ethyl lactate 5%",Listeria monocytogenes; [6],+
same,"MIC, Concentration of Lactic Esters 0.5%",Pseudomonas aeruginosa; SDS 0.0 ppm,+
same,"MIC, Concentration of Lactic Esters 0.5%",Pseudomonas aeruginosa; SDS 50 ppm,−
same,"MIC, Concentration of Lactic Esters 0.5%",Pseudomonas aeruginosa; SDS 100 ppm,−
same,"MIC, Concentration of Lactic Esters 0.5%",Pseudomonas aeruginosa; SDS 200 ppm,−
same,"MLC, Concentration of Ethyl lactate 0.5%",Pseudomonas aeruginosa; first MLC line of organism,+
same,"MLC, Concentration of Ethyl lactate 0.5%",Pseudomonas aeruginosa; second MLC line of organism,+
same,"MIC, Concentration of Lactic Esters 1%",Pseudomonas aeruginosa; SDS 0.0 ppm,+
same,"MIC, Concentration of Lactic Esters 1%",Pseudomonas aeruginosa; SDS 50 ppm,−
same,"MIC, Concentration of Lactic Esters 1%",Pseudomonas aeruginosa; SDS 100 ppm,−
same,"MIC, Concentration of Lactic Esters 1%",Pseudomonas aeruginosa; SDS 200 ppm,−
same,"MLC, Concentration of Ethyl lactate 1%",Pseudomonas aeruginosa; first MLC line of organism,+
same,"MLC, Concentration of Ethyl lactate 1%",Pseudomonas aeruginosa; second MLC line of organism,+
same,"MIC, Concentration of Lactic Esters 2%",Pseudomonas aeruginosa; SDS 0.0 ppm,−
same,"MIC, Concentration of Lactic Esters 2%",Pseudomonas aeruginosa; SDS 50 ppm,−
same,"MIC, Concentration of Lactic Esters 2%",Pseudomonas aeruginosa; SDS 100 ppm,−
same,"MIC, Concentration of Lactic Esters 2%",Pseudomonas aeruginosa; SDS 200 ppm,−
same,"MLC, Concentration of Ethyl lactate 2%",Pseudomonas aeruginosa; first MLC line of organism,−
same,"MLC, Concentration of Ethyl lactate 2%",Pseudomonas aeruginosa; second MLC line of organism,+
same,"MIC, Concentration of Lactic Esters 3%",Pseudomonas aeruginosa; SDS 0.0 ppm,−
same,"MIC, Concentration of Lactic Esters 3%",Pseudomonas aeruginosa; SDS 50 ppm,−
same,"MIC, Concentration of Lactic Esters 3%",Pseudomonas aeruginosa; SDS 100 ppm,−
same,"MIC, Concentration of Lactic Esters 3%",Pseudomonas aeruginosa; SDS 200 ppm,−
same,"MLC, Concentration of Ethyl lactate 3%",Pseudomonas aeruginosa; first MLC line of organism,−
same,"MLC, Concentration of Ethyl lactate 3%",Pseudomonas aeruginosa; second MLC line of organism,+
same,"MIC, Concentration of Lactic Esters 4%",Pseudomonas aeruginosa; SDS 0.0 ppm,−
same,"MIC, Concentration of Lactic Esters 4%",Pseudomonas aeruginosa; SDS 50 ppm,−
same,"MIC, Concentration of Lactic Esters 4%",Pseudomonas aeruginosa; SDS 100 ppm,−
same,"MIC, Concentration of Lactic Esters 4%",Pseudomonas aeruginosa; SDS 200 ppm,−
same,"MLC, Concentration of Ethyl lactate 4%",Pseudomonas aeruginosa; first MLC line of organism,−
same,"MLC, Concentration of Ethyl lactate 4%",Pseudomonas aeruginosa; second MLC line of organism,−
same,"MIC, Concentration of Lactic Esters 5%",Pseudomonas aeruginosa; SDS 0.0 ppm,−
same,"MIC, Concentration of Lactic Esters 5%",Pseudomonas aeruginosa; SDS 50 ppm,−
same,"MIC, Concentration of Lactic Esters 5%",Pseudomonas aeruginosa; SDS 100 ppm,−
same,"MIC, Concentration of Lactic Esters 5%",Pseudomonas aeruginosa; SDS 200 ppm,−
same,"MLC, Concentration of Ethyl lactate 5%",Pseudomonas aeruginosa; first MLC line of organism,−
same,"MLC, Concentration of Ethyl lactate 5%",Pseudomonas aeruginosa; second MLC line of organism,−
same,"MLC, Concentration of Ethyl lactate 0.5%",Staphylococcus aureus; first MLC line of organism,+
same,"MLC, Concentration of Ethyl lactate 0.5%",Staphylococcus aureus; second MLC line of organism,+
same,"MIC, growth at 1%","Staphylococcus aureus; 1%, Table 4",+
same,"MLC, Concentration of Ethyl lactate 1%","Staphylococcus aureus; 1%, first MLC line of organism",+
same,"MLC, Concentration of Ethyl lactate 1%",Staphylococcus aureus; [2],+
same,"MIC, growth at 2%","Staphylococcus aureus; 2%, Table 4",+
same,"MLC, Concentration of Ethyl lactate 2%","Staphylococcus aureus; 2%, first MLC line of organism",+
same,"MLC, Concentration of Ethyl lactate 2%",Staphylococcus aureus; [3],+
same,"MIC, growth at 3%","Staphylococcus aureus; 3%, Table 4",+
same,"MLC, Concentration of Ethyl lactate 3%","Staphylococcus aureus; 3%, first MLC line of organism",+
same,"MLC, Concentration of Ethyl lactate 3%",Staphylococcus aureus; [4],+
same,"MIC, growth at 4%","Staphylococcus aureus; 4%, Table 4",+
same,"MLC, Concentration of Ethyl lactate 4%","Staphylococcus aureus; 4%, first MLC line of organism",+
same,"MLC, Concentration of Ethyl lactate 4%",Staphylococcus aureus; [5],+
same,"MIC, growth at 5%","Staphylococcus aureus; 5%, Table 4",+
same,"MLC, Concentration of Ethyl lactate 5%","Staphylococcus aureus; 5%, first MLC line of organism",−
same,"MLC, Concentration of Ethyl lactate 5%",Staphylococcus aureus; [6],+
same,"MLC, Concentration of Ethyl lactate 0.5%",Salmonella typhimurium; first MLC line of organism,+
same,"MLC, Concentration of Ethyl lactate 0.5%",Salmonella typhimurium; second MLC line of organism,+
same,"MLC, Concentration of Ethyl lactate 1%",Salmonella typhimurium; first MLC line of organism,+
same,"MLC, Concentration of Ethyl lactate 1%",Salmonella typhimurium; second MLC line of organism,+
same,"MLC, Concentration of Ethyl lactate 2%",Salmonella typhimurium; first MLC line of organism,+
same,"MLC, Concentration of Ethyl lactate 2%",Salmonella typhimurium; second MLC line of organism,+
same,"MLC, Concentration of Ethyl lactate 3%",Salmonella typhimurium; first MLC line of organism,+
same,"MLC, Concentration of Ethyl lactate 3%",Salmonella typhimurium; second MLC line of organism,+
same,"MLC, Concentration of Ethyl lactate 4%",Salmonella typhimurium; first MLC line of organism,−
same,"MLC, Concentration of Ethyl lactate 4%",Salmonella typhimurium; second MLC line of organism,+
same,"MLC, Concentration of Ethyl lactate 5%",Salmonella typhimurium; first MLC line of organism,−
same,"MLC, Concentration of Ethyl lactate 5%",Salmonella typhimurium; second MLC line of organism,+
same,"MIC, growth at 1%",Salmonella typhi; 1%,+
same,"MIC, growth at 2%",Salmonella typhi; 2%,+
same,"MIC, growth at 3%",Salmonella typhi; 3%,+
same,"MIC, growth at 4%",Salmonella typhi; 4%,−
same,"MIC, growth at 5%",Salmonella typhi; 5%,−
same,Lethal (MLC) Concentration 1%,Saccharomyces cerevisiae,+
same,Inhibitory (MIC) Concentration 1%,"Saccharomyces cerevisiae; 48 hrs, 25° C",+
same,Inhibitory (MIC) Concentration 1%,Saccharomyces cerevisiae; Sodium lauryl sulfate 200 ppm,+
same,Lethal (MLC) Concentration 1%,Saccharomyces cerevisiae; Sodium lauryl sulfate 200 ppm,+
same,Lethal (MLC) Concentration 1.5%,Saccharomyces cerevisiae,+
same,Inhibitory (MIC) Concentration 1.5%,"Saccharomyces cerevisiae; 48 hrs, 25° C",−
same,Inhibitory (MIC) Concentration 1.5%,Saccharomyces cerevisiae; Sodium lauryl sulfate 200 ppm,−
same,Lethal (MLC) Concentration 1.5%,Saccharomyces cerevisiae; Sodium lauryl sulfate 200 ppm,+
same,Lethal (MLC) Concentration 2%,Saccharomyces cerevisiae,−
same,Inhibitory (MIC) Concentration 2%,"Saccharomyces cerevisiae; 48 hrs, 25° C",−
same,Inhibitory (MIC) Concentration 2%,Saccharomyces cerevisiae; Sodium lauryl sulfate 200 ppm,−
same,Lethal (MLC) Concentration 2%,Saccharomyces cerevisiae; Sodium lauryl sulfate 200 ppm,−
same,Lethal (MLC) Concentration 3%,Saccharomyces cerevisiae,−
same,Inhibitory (MIC) Concentration 3%,"Saccharomyces cerevisiae; 48 hrs, 25° C",−
same,Inhibitory (MIC) Concentration 3%,Saccharomyces cerevisiae; Sodium lauryl sulfate 200 ppm,−
same,Lethal (MLC) Concentration 3%,Saccharomyces cerevisiae; Sodium lauryl sulfate 200 ppm,−
same,Lethal (MLC) Concentration 4%,Saccharomyces cerevisiae,−
same,Inhibitory (MIC) Concentration 4%,"Saccharomyces cerevisiae; 48 hrs, 25° C",−
same,Inhibitory (MIC) Concentration 4%,Saccharomyces cerevisiae; Sodium lauryl sulfate 200 ppm,−
same,Lethal (MLC) Concentration 4%,Saccharomyces cerevisiae; Sodium lauryl sulfate 200 ppm,−
CC(=O)C1C(=O)C=C(C)OC1=O (centres unmarked) [dehydroacetic acid],solubility in ethyl lactate (appearance of solution),[1],clear solution
